Test systems include MDA-MB-435; T47D; MDA-MB-231; SR; SF-539; SK-MEL-28; COLO 205; NCI-H460; CAKI-1; A498; HCC 2998; UO-31; HCT-15; SN12C; SK-MEL-5; EKVX; NCI/ADR-RES; TK-10; NCI-H226.
Test in all cases: NCI-60 cell line screen, 48 h

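Tested at 5 concentrations; 48 h exposure; 96-well plates; endpoints linearly interpolated, else capped at highest concentration. GI50: concentration for 50% inhibition of growth.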 The source made the active and inactive calls. Rule as the data show it: active = GI50 up to about 1.1 µM and inactive = higher.

With `COc1cc(Cn2c3c(c4c(C(=O)NCCN(C)C)c(O)ccc42)C(=O)c2ccccc2C3=O)cc(OC)c1`, the GI50 is 1.75 µM (inactive) with MDA-MB-435; 1.8 µM (inactive) in the test on T47D; 2.1 µM (inactive) with MDA-MB-231; 0.31 µM (active) with SR; 1.79 µM (inactive) in the test on SF-539; 1.9 µM (inactive) in the test with SK-MEL-28. Also, the GI50 in the test with COLO 205 was 1.81 µM (inactive); with NCI-H460, 1.79 µM (inactive); with CAKI-1 it was 1.68 µM (inactive); in the test on A498, 1.95 µM (inactive); in the test on HCC 2998, 1.13 µM (inactive); with UO-31, 1.71 µM (inactive). For the same compound, the GI50 was 1.88 µM in the test on HCT-15; 1.85 µM (inactive) in the test with SN12C; 1.67 µM (inactive) with SK-MEL-5; 1.82 µM (inactive) with EKVX; 2.32 µM (inactive) in the test on NCI/ADR-RES; 1.61 µM (inactive) in the test on TK-10. In addition, in the test with NCI-H226, the GI50 was 6.87 µM (inactive).
Turning to `CC(=O)C1=C(C)N(c2ccc(C)cc2)C2(O)C=CC(O)=C3C(=O)c4ccccc4C(=O)C312` (stereo not drawn), the GI50 was 2.33 µM (inactive) in the test on MDA-MB-435; 9.95 µM (inactive) with T47D; 20.7 µM (inactive) in the test with MDA-MB-231; 36.9 µM (inactive) with SR; 23.8 µM (inactive) in the test with SF-539; 13.1 µM (inactive) in the test on SK-MEL-28. Besides, the GI50 was 5.05 µM (inactive) in the test on COLO 205; 7.23 µM (inactive) in the test on NCI-H460; 13.5 µM (inactive) with CAKI-1; 12.9 µM (inactive) in the test with A498; 16.8 µM (inactive) in the test with HCC 2998; 14.1 µM (inactive) in the test on UO-31. Further, the GI50 with HCT-15 is 4.49 µM; with SN12C it was 13.6 µM (inactive); in the test on SK-MEL-5 it was 7.4 µM (inactive); in the test with EKVX, 19.3 µM (inactive); in the test with NCI/ADR-RES, 3.78 µM (inactive); in the test with TK-10 it was 23.4 µM (inactive). The GI50 with NCI-H226 was 22.8 µM (inactive).
For the compound `O=C(NCCSSCCNC(=O)/C(Cc1ccc(O)c(Br)c1)=N/O)/C(Cc1ccc(O)c(Br)c1)=N/O` [PSAMMAPLIN A], the GI50 in the test with MDA-MB-435 was 1.51 µM (inactive); in the test with T47D, 3.71 µM (inactive); with MDA-MB-231, 1.78 µM (inactive); with SR it was 0.38 µM (active); in the test on SF-539 it was 1.72 µM (inactive); in the test with SK-MEL-28 it was 3.16 µM (inactive). Further, the GI50 was 1.64 µM (inactive) with COLO 205; 0.902 µM (active) with NCI-H460; 1.47 µM (inactive) in the test on CAKI-1; 2.9 µM (inactive) in the test with A498; 2.17 µM (inactive) with HCC 2998; 1.74 µM (inactive) with UO-31. Also, the GI50 with HCT-15 is 4.89 µM; in the test with SN12C it was 1.43 µM (inactive); in the test with SK-MEL-5, 0.927 µM (active); with EKVX, 4.49 µM (inactive); with NCI/ADR-RES, 1.29 µM (inactive); in the test with TK-10, 2.92 µM (inactive). Further, the GI50 in the test on NCI-H226 was 9.82 µM (inactive).
For `Cc1cc2nc3c(C#N)c(C)c(CCCl)c(Cl)n3c2cc1C`, the GI50 in the test with MDA-MB-435 was 2.07 µM (inactive); in the test with T47D it was 3.13 µM (inactive); with MDA-MB-231 it was 2 µM (inactive); with SR, 2.29 µM (inactive); with SF-539, 2.51 µM (inactive); with SK-MEL-28 it was 4.52 µM (inactive). Further, the GI50 is 3.69 µM (inactive) in the test with COLO 205; 5.77 µM (inactive) in the test with NCI-H460; 2.88 µM (inactive) with CAKI-1; 2.92 µM (inactive) with A498; 2.97 µM (inactive) in the test with HCC 2998; 2.02 µM (inactive) in the test on UO-31. Moreover, the GI50 in the test on HCT-15 is 1.87 µM; in the test with SN12C, 1.92 µM (inactive); with SK-MEL-5 it was 4.39 µM (inactive); with EKVX it was 10.5 µM (inactive); in the test with NCI/ADR-RES, 3.18 µM (inactive); in the test with TK-10, 2.18 µM (inactive). Moreover, the GI50 in the test on NCI-H226 was 0.166 µM (active).
On to `COc1ccc(C(c2ccccc2)N2C(=O)CCC2C(=O)O)cc1OC` (stereo not drawn), for which the GI50 was > 100 µM (inactive) in the test with MDA-MB-435; > 100 µM (inactive) in the test on T47D; > 100 µM (inactive) in the test on MDA-MB-231; > 100 µM (inactive) with SR; > 100 µM (inactive) with SF-539; 14 µM (inactive) in the test on SK-MEL-28. The GI50 in the test with COLO 205, in the test on NCI-H460, with CAKI-1, with A498, in the test on HCC 2998 and in the test on UO-31 was > 100 µM (inactive) throughout. Also, the GI50 in the test with HCT-15 is greater than 100 µM; with SN12C, > 100 µM (inactive); with SK-MEL-5, > 100 µM (inactive); with EKVX, > 100 µM (inactive); in the test with NCI/ADR-RES, > 100 µM (inactive); in the test on TK-10 it was > 100 µM (inactive). The GI50 in the test with NCI-H226 is > 100 µM (inactive).
Regarding `CC(C(=O)O)C1Nc2ccccc2NC1=O` (stereo not drawn), the GI50 is > 100 µM (inactive) in the test with MDA-MB-435; > 100 µM (inactive) in the test with T47D; > 100 µM (inactive) in the test on MDA-MB-231; 65.6 µM (inactive) in the test with SR; > 100 µM (inactive) in the test on SF-539; > 100 µM (inactive) in the test with SK-MEL-28. The GI50 with COLO 205, with NCI-H460, in the test on CAKI-1, with A498, in the test with HCC 2998 and in the test on UO-31 was > 100 µM (inactive) throughout. Besides, the GI50 with HCT-15 was greater than 100 µM; with SK-MEL-5, > 100 µM (inactive); with EKVX, > 100 µM (inactive); with NCI/ADR-RES, > 100 µM (inactive); with TK-10 it was > 100 µM (inactive); in the test with NCI-H226, > 100 µM (inactive).
Take `CC(C)Oc1cc2c(cc1O)CC[C@@H]1[C@@H]2CC[C@]2(C)[C@@H](O)CC[C@@H]12`: the GI50 with MDA-MB-435 was 0.687 µM (active); in the test with T47D, 4.68 µM (inactive); in the test with MDA-MB-231, 8.36 µM (inactive); with SR it was 0.575 µM (active); in the test on SF-539, 2.42 µM (inactive); in the test on SK-MEL-28 it was 8.3 µM (inactive). Further, the GI50 with COLO 205 was 20 µM (inactive); with NCI-H460, 3.28 µM (inactive); in the test with CAKI-1 it was 1.52 µM (inactive); in the test on A498, 6.65 µM (inactive); in the test with HCC 2998, 5.26 µM (inactive); in the test with UO-31 it was 6.46 µM (inactive). Moreover, the GI50 with HCT-15 is 1.61 µM; in the test with SN12C, 5.66 µM (inactive); in the test on SK-MEL-5, 3.01 µM (inactive); in the test on EKVX, 12.7 µM (inactive); in the test with NCI/ADR-RES, 2.07 µM (inactive); in the test on TK-10 it was 11 µM (inactive). Besides, the GI50 in the test with NCI-H226 was 3.23 µM (inactive).
On to `C=C(C)/C=C/C(O)[C@](C)(O)[C@H]1[C@H](O)C[C@@]2(C)[C@@H]3CCc4c(cc(OC5OC(CO)C(O)C(O)C5O)c(O)c4C)C3(C)C(=O)C[C@]12C` (stereo partly drawn), for which the GI50 with MDA-MB-435 was > 100 µM (inactive); in the test with T47D it was > 100 µM (inactive); in the test with MDA-MB-231, > 100 µM (inactive); with SR it was > 100 µM (inactive); with SF-539, 96.4 µM (inactive); in the test with SK-MEL-28 it was > 100 µM (inactive). The GI50 with COLO 205, with NCI-H460, in the test with CAKI-1, in the test on A498, in the test on HCC 2998 and with UO-31 was > 100 µM (inactive) in each case. Also, the GI50 is greater than 100 µM in the test on HCT-15; > 100 µM (inactive) with SN12C; > 100 µM (inactive) with SK-MEL-5; > 100 µM (inactive) in the test on EKVX; > 100 µM (inactive) in the test with NCI/ADR-RES; > 100 µM (inactive) in the test with TK-10. In addition, in the test with NCI-H226, the GI50 is > 100 µM (inactive).
For `Nc1ncn(C2OC(COP(=O)(O)O)C(O)C2O)c(=O)n1` (stereo not drawn), the GI50 is > 53.2 µM (inactive) in the test with MDA-MB-435; > 100 µM (inactive) with T47D; > 100 µM (inactive) in the test on MDA-MB-231; > 91.6 µM (inactive) in the test on SR; > 100 µM (inactive) with SF-539; > 100 µM (inactive) in the test with SK-MEL-28. For the same compound, the GI50 with COLO 205 is > 100 µM (inactive); with NCI-H460, 52.8 µM (inactive); with CAKI-1 it was > 71.9 µM (inactive); in the test with A498, > 100 µM (inactive); with HCC 2998, > 100 µM (inactive); with UO-31, > 91.2 µM (inactive). Moreover, the GI50 with HCT-15 was greater than 100 µM; with SN12C, 63.5 µM (inactive); in the test with SK-MEL-5 it was > 100 µM (inactive); in the test on EKVX, > 58.2 µM (inactive); in the test with NCI/ADR-RES, > 100 µM (inactive); in the test with TK-10 it was > 100 µM (inactive). The GI50 in the test with NCI-H226 is > 100 µM (inactive).
Regarding `CC1=NN(c2nc(N)nc(C(C)Cl)n2)C(C)(C)C1` (stereo not drawn), the GI50 in the test on MDA-MB-435, with T47D, with MDA-MB-231, with SR, in the test with SF-539 and with SK-MEL-28 was > 100 µM (inactive) throughout. Further, the GI50 with COLO 205, with NCI-H460, with CAKI-1, with A498, in the test with HCC 2998 and in the test with UO-31 was > 100 µM (inactive) each time. Besides, the GI50 with HCT-15 is greater than 100 µM; in the test on SK-MEL-5 it was > 100 µM (inactive); with EKVX it was > 100 µM (inactive); with NCI/ADR-RES, > 100 µM (inactive); with TK-10 it was > 100 µM (inactive); in the test with NCI-H226, > 100 µM (inactive).

The record behind these values is ChEMBL document CHEMBL1201862, “PubChem BioAssay data set” (2004).
